Test [1] has as its system T1, extracellular β-glucosidase.
T1 construct: gene beta-D-glucoside glucohydrolase; native, secreted, purified from culture filtrate of cellulose-grown mycelial form
As to the kind of experiment: fluorometric 4-MU release, Michaelis-Menten nonlinear regression. The test is classed as biochemical, Sporothrix schenckii. As to conditions: 100 mM sodium citrate pH 5, 45 °C; substrate 0–15 μM.

The test system is the same in test [2]. Briefly: p-nitrophenol release at […] nm, Michaelis-Menten nonlinear regression. The test is classed as biochemical, Sporothrix schenckii. Particulars: 100 mM sodium citrate pH 5, 45 °C; substrate 0–17.5 mM (below the fitted Km).
The target of test [3] is extracellular β-glucosidase from Sporothrix schenckii (Sporothrix schenckii). Briefly: SEC; Sephacryl S200-HR column (1 x 119 cm), 50 mM phosphate buffer pH 7, 4 °C, calibrated with standard proteins; native mass compared with the subunit mass from 7% SDS/PAGE. Background: In gel filtration, larger molecules generally elute earlier.
Test [4] shares this target. As to the kind of experiment: zymogram after SDS/PAGE (semidenaturing) and native PAGE; 7% gels run at 4 °C, sample incubated 30 min at 37 °C in sample buffer; activity shown with 4-MUG; CFCF after 3 days on cellulose.

The results in this text go back to paper PMC5095144, “Purification and characterization of an extracellular β‐glucosidase from Sporothrix schenckii” (FEBS Open Bio, 2016).

With `Cc1cc(=O)oc2cc(O[C@@H]3O[C@H](CO)[C@@H](O)[C@H](O)[C@H]3O)ccc12` [4-methylumbelliferyl β-D-glucopyranoside], the Km in test [1] is 0.012 ± 0.001 mM.
With `O=[N+]([O-])c1ccc(O[C@@H]2O[C@H](CO)[C@@H](O)[C@H](O)[C@H]2O)cc1` [p-nitrophenyl β-D-glucopyranoside], the Km in test [2] was 44.1 ± 6.11 mM.
Turning to “extracellular β-glucosidase from Sporothrix schenckii (enzyme)”, the stoichiometry N in test [3] and in test [4] was 2 in each case.

By Km is commonly meant the substrate concentration at which the rate is half of its maximum. What is called stoichiometry N is the number of molecules, sites or subunits per partner or assembly.
